Our source for the TGI and GI50 values is PubChem BioAssay (NCI).

Test systems include RPMI-8226 leukemia; A549 NSCLC; HCT-116 colon; OVCAR-3 ovarian; SK-MEL-2 melanoma; SNB-19 CNS; OVCAR-4 ovarian; OVCAR-5 ovarian; NCI-H460 lung; SN12C renal; SR leukemia; A498 renal; SW-620 colon; NCI-H23 lung; SNB-75 CNS; HOP-92 NSCLC; SF-539 CNS; NCI-H522 lung; HT29 colon.
Assay in all cases: NCI anticancer screen, dose series, 48 h

Where “and” joins values, the source holds several entries; their conditions need not be identical. Equal values may be shown once.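 A five-concentration, 48-hour dose response in 96-well plates underlies each endpoint, interpolated linearly between surrounding concentrations. At the GI50, growth is halved. TGI marks complete inhibition of growth.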 A value given as a limit tells only on which side of the number the result lay.

For `CN(C(=O)C1=CCC2(CC1)OCCO2)c1ccccc1OS(=O)(=O)C(F)(F)F`, the TGI in the assay on RPMI-8226 leukemia, in the assay on A549 NSCLC, with HCT-116 colon, with OVCAR-3 ovarian, with SK-MEL-2 melanoma and in the assay with SNB-19 CNS was more than 100 µM each time. In addition, the TGI in the assay on OVCAR-4 ovarian, with OVCAR-5 ovarian, in the assay with NCI-H460 lung, with SN12C renal, with SR leukemia and in the assay on A498 renal was more than 100 µM throughout. The TGI in the assay on SW-620 colon was more than 100 µM; in the assay on NCI-H23 lung, more than 100 µM; with SNB-75 CNS, 79.5 µM; in the assay with HOP-92 NSCLC, more than 100 µM.
Turning to `N=C1/C(=C/c2ccc(F)cc2)C(=O)N=C2SC=NN12`, the TGI in the assay on RPMI-8226 leukemia, in the assay with A549 NSCLC, in the assay with SF-539 CNS, in the assay on HCT-116 colon, in the assay on OVCAR-3 ovarian and with SK-MEL-2 melanoma was more than 100 µM in each case. In addition, the TGI with NCI-H522 lung, in the assay on SNB-19 CNS, with OVCAR-4 ovarian, with OVCAR-5 ovarian, with NCI-H460 lung and with SN12C renal was more than 100 µM in each case. Moreover, the TGI with SR leukemia, with SW-620 colon, with NCI-H23 lung, with SNB-75 CNS, with HOP-92 NSCLC and in the assay with HT29 colon was more than 100 µM throughout.
As for `CC(C)(C)[Si](C)(C)OCC1OC(n2ccc(N)nc2=O)C(O[Si](C)(C)C(C)(C)C)C1O[Si](C)(C)C(C)(C)C` (configuration not stated), the TGI with A549 NSCLC turned out to be 11.6 µM; in the assay on HCT-116 colon it was 11.6 µM; with OVCAR-3 ovarian, 3.3 µM; in the assay on SK-MEL-2 melanoma, 4.89 µM; in the assay with NCI-H522 lung, 3.36 µM; in the assay with SNB-19 CNS it was 11.4 µM. In addition, the TGI was found to be 2.21 µM with OVCAR-4 ovarian; 3.58 µM in the assay with OVCAR-5 ovarian; 3.7 µM in the assay with NCI-H460 lung; 10.2 µM in the assay on SN12C renal; 6.66 µM in the assay on SR leukemia; 2.93 µM in the assay with SW-620 colon. The TGI came to 14.2 µM in the assay on SNB-75 CNS, 4.71 µM in the assay with HOP-92 NSCLC and 3.02 µM in the assay with HT29 colon.
As for `CCc1cc2c(oc3cc4ccccc4cc32)c(=O)[nH]1`, the TGI with A549 NSCLC, with SF-539 CNS, with HCT-116 colon, in the assay with OVCAR-3 ovarian, in the assay with SK-MEL-2 melanoma and in the assay on NCI-H522 lung was more than 10 µM in each case. Besides, the TGI in the assay with SNB-19 CNS, in the assay on OVCAR-4 ovarian, in the assay on OVCAR-5 ovarian, with NCI-H460 lung, in the assay with SN12C renal and in the assay with SR leukemia was more than 10 µM in each case. Moreover, the TGI in the assay with SW-620 colon, in the assay on SNB-75 CNS, in the assay with HOP-92 NSCLC and in the assay with HT29 colon was more than 10 µM each time.
As to `OCCCCCCCCCCCOc1ccc(C2OCC3(CO2)COC(c2ccc(OCCCCCCCCCCCO)cc2)OC3)cc1` (configuration not stated), the TGI in the assay with RPMI-8226 leukemia, with A549 NSCLC, in the assay with SF-539 CNS, with HCT-116 colon, with OVCAR-3 ovarian and in the assay on SK-MEL-2 melanoma was more than 50 µM throughout. Besides, the TGI in the assay with SNB-19 CNS, with OVCAR-4 ovarian, in the assay with OVCAR-5 ovarian, with NCI-H460 lung, in the assay with SN12C renal and with SR leukemia was more than 50 µM in each case. The TGI in the assay on A498 renal, in the assay with SW-620 colon, in the assay on NCI-H23 lung, in the assay on SNB-75 CNS and with HT29 colon was more than 50 µM each time.
Consider `COCC1OC(Sc2ccccc2)C(O)C(OC)C1OC` (configuration not stated), for which the TGI in the assay with A549 NSCLC, with SF-539 CNS, in the assay on HCT-116 colon, in the assay with OVCAR-3 ovarian, with SK-MEL-2 melanoma and with NCI-H522 lung was more than 100 µM throughout. Besides, the TGI in the assay on SNB-19 CNS, with OVCAR-4 ovarian, in the assay with OVCAR-5 ovarian, in the assay on NCI-H460 lung, with SN12C renal and in the assay on SR leukemia was more than 100 µM each time. For the same molecule, the TGI in the assay on SW-620 colon, in the assay with NCI-H23 lung, with SNB-75 CNS and in the assay on HT29 colon was more than 100 µM throughout. Besides, in the assay on SNB-75 CNS, the GI50 is > 100 µM and 10.1 µM.
On to `FC(F)(F)c1ccc(N=C/C=C(/Nc2ccc(C(F)(F)F)cc2)c2ccc(Cl)cc2)cc1`, for which the TGI came out at 84.8 µM in the assay with RPMI-8226 leukemia; 35.5 µM in the assay on A549 NSCLC; 31.3 µM in the assay with SF-539 CNS; 24.5 µM with HCT-116 colon; 27.9 µM with OVCAR-3 ovarian; 49.6 µM in the assay on SK-MEL-2 melanoma. For the same molecule, the TGI was 31.3 µM in the assay with NCI-H522 lung; 25 µM in the assay with SNB-19 CNS; 49.8 µM with OVCAR-4 ovarian; 38.3 µM with OVCAR-5 ovarian; more than 100 µM in the assay on NCI-H460 lung; 26.3 µM in the assay with SN12C renal. Besides, the TGI in the assay with SR leukemia is more than 100 µM; in the assay on SW-620 colon, 32.8 µM; in the assay with NCI-H23 lung it was 31.3 µM; in the assay with SNB-75 CNS, 36.8 µM; in the assay on HOP-92 NSCLC, 51.4 µM; in the assay on HT29 colon it was 24.8 µM.
Take `NC1CC(=O)c2c(Br)csc21` (configuration not stated): the TGI with RPMI-8226 leukemia, in the assay on A549 NSCLC, in the assay with SF-539 CNS, in the assay with HCT-116 colon, in the assay on OVCAR-3 ovarian and in the assay with SK-MEL-2 melanoma was more than 100 µM each time. Also, the TGI in the assay with SNB-19 CNS, with OVCAR-5 ovarian, in the assay with NCI-H460 lung, in the assay on SN12C renal, in the assay on SR leukemia and with A498 renal was more than 100 µM each time. Also, the TGI with SW-620 colon was 77.7 µM; with SNB-75 CNS, more than 100 µM; in the assay with HT29 colon, more than 100 µM.
